Reference: patent publication US8883793B2, “Tubulin inhibitors and methods of using the same” (Development Center for Biotechnology, priority 2010, dated 2014)
pIC50: −log10 of the molar value.

Assays:
KB cell = experiment: MTS assay, growth inhibition of KB cells; assay type: cell-based; details: Homo sapiens, at 10 μM concentration, incubated for 72 h, read-out: Inhibition rate (%) (growth inhibition rate of MTS assay)
How it was run: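 KB cells were allowed 24 h to attach before a 72 h exposure to compound at 10 μM. Viability was measured by MTS/PMS reduction, with absorbance read at 490 nm after 3 h. Values are reported as percent growth inhibition.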

porcine brain tubulin = experiment: Tubulin polymerization assay; assay type: biochemical; details: at 10 μM concentration
Protocol: In vitro tubulin polymerization assay was performed by using the Tubulin Polymerization Assay Kit (Cytoskeleton, Inc., Denver, Colo.) in a 96-well format, which used the polymerization of porcine brain tubulin in vitro in the presence of varying concentrations of the test compounds. Fluorescence measurements were obtained at 1-minute intervals over a 31-minute period. Fluorescent measurements were performed using excitation at 365 nm, and emission was measured at 440 nm using a Packard Fusion Alpha Microplate Analyzer. Data were analyzed as relative fluorescent units by GraphPad Prism 5 Demo.

biotinylated tubulin = experiment: Colchicine competitive-binding assay; details: at 10 μM concentration, 3H-colchicine; for Inhibition rate (%) (colchicine competitive-binding): right column pair of Table 7; for binding rate (%) (colchicine competitive-binding): left column pair of Table 7
Protocol: The colchicine competitive-binding assay was done by using the Colchicine Site competitive Assay Kit (Cytoskeleton, Inc.), streptavidin-coated yttrium SPA beads(GE Healthcare, Inc.), and ^3H-colchicine(PerkinElmer, Inc.). Briefly, the binding mixture includes 1 μL^3H-labeled ligand (specific activity […]), and 1 μg biotinylated tubulin and 88 μg SPA beads in 200 μL assay buffer. The test compound and ^3H-labeled ligand were added before tubulin. After incubation at 37° C. for 2 hours, the SPA beads were allowed to settle down for 24 hours at room temperature, and scintillation counting was done on the TopCount Microplate Scintillation Counter.

A375 = experiment: MTS assay, A375; assay type: cell-based; details: Homo sapiens, A-375, 72 h, read-out: IC50 from MTS assay
Protocol: (§1) MTS assay was performed in determining the growth inhibition of cancer cells. MTS ((3-(4,5-dimethylthiazol-2-yl)-5-(3-carboxymethoxyphenyl)-2-(4-sulfophenyl)-2H-tetrazolium)), in the presence of phenazine methosulfate (PMS) and reductases, produces a formazan product that has an absorbance maximum at 490-500 nm. MTS assays (and closely related MTT assay) are commonly used to measure cell viabilities or survivals.
(§2) Briefly, KB/Hela, NCI-H460, A375, Colo205, HCT-116, U937, MCF-7, MDA-MB-231, A549, H1975 cells were seeded into 96-well plate at 4000, 4000, 2000, 2000, 2000 cells/well. After 24 h for attachment, test compound was added into each well and incubated for 72 h. A total of 20 μl of MTS reaction reagent containing the MTS (Promega, Madison, Wis.) and PMS in a ratio of 20:1 was added into each well to react with dehydrogenase enzyme in survival cells. After 3 h, the absorbance at 490 nm was monitored using Emax precision microplate reader (Molecular Devices, Sunnyvale, Calif.).

MDA-MB-231 = experiment: MTS assay, MDA-MB-231; assay type: cell-based; details: Homo sapiens, 72 h, read-out: IC50 from MTS assay
Protocol: as §1, §2

H1975 = experiment: MTS assay, H1975; assay type: cell-based; details: Homo sapiens, NCI-H1975, 72 h, read-out: IC50 from MTS assay
Protocol: as §1, §2

U937 = experiment: MTS assay, U937; assay type: cell-based; details: Homo sapiens, U-937, 72 h, read-out: IC50 from MTS assay
Protocol: as §1, §2

Colo205 = experiment: MTS assay, Colo205; assay type: cell-based; details: Homo sapiens, COLO 205, 72 h, read-out: IC50 from MTS assay
Protocol: as §1, §2

A549 = experiment: MTS assay, A549; assay type: cell-based; details: Homo sapiens, 72 h, read-out: IC50 from MTS assay
Protocol: as §1, §2

Inhibition rate (%) (colchicine competitive-binding) (biotinylated tubulin) | binding rate (%) (colchicine competitive-binding) (biotinylated tubulin) | Compound | inhibition at 10 µM (KB cell) [%] | Inhibition rate (%) of tubulin polymerization (porcine brain tubulin) [%] | also measured
 | 55.4 | O=C(CCc1ccccc1)Nc1ncc(Cc2ccc(C(F)(F)F)cc2)s1 [Compound 47, 3-Phenyl-N-[5-(4-trifluoromethyl-benzyl)-thiazol-2-yl]-propionamide] | 94.5 | 57.2 | 
 | 76.9 | COc1ccc(Cc2cnc(NC(=O)CCc3cccnc3)s2)cc1OC [Compound 17, N-[5-(3,4-Dimethoxy-benzyl)-thiazol-2-yl]-3-pyridin-3-yl-propionamide] | 95.9 | 65.3 | 
 | 92.9 | COc1ccc(Sc2cnc(NC(=O)CCc3cccnc3)s2)cc1 [Compound 70, N-[5-(4-Methoxy-phenylsulfanyl)-thiazol-2-yl]-3-pyridin-3-yl-propionamide] | 78.5 | 59.6 | pIC50 (A375): 7.46; pIC50 (MDA-MB-231): 6.74; pIC50 (H1975): 6.85; pIC50 (U937): 7.63; pIC50 (Colo205): 7.17; pIC50 (A549): 7.24
 | 77.5 | COc1ccc(Cc2cnc(NC(=O)CCc3ccccc3)s2)cc1 [Compound 9, N-[5-(4-Methoxy-benzyl)-thiazol-2-yl]-3-phenyl-propionamide] | 96.1 | 79.0 | 
 | 88.6 | COc1ccc(Cc2cnc(NC(=O)CCc3cccnc3)s2)cc1 [Compound 10, N-[5-(4-Methoxy-benzyl)-thiazol-2-yl]-3-pyridin-3-yl-propionamide] | 94.4 | 88.7 | 
 | 78.7 | COc1ccc(Cc2cnc(NC(=O)CCc3cccnc3)s2)c(OC)c1OC [Compound 53, 3-Pyridin-3-yl-N-[5-(2,3,4-trimethoxy-benzyl)-thiazol-2-yl]-propionamide] | 96.7 | 62.2 | 

Continued, molecule first:

Compound | Inhibition rate (%) (colchicine competitive-binding) (biotinylated tubulin) | binding rate (%) (colchicine competitive-binding) (biotinylated tubulin) | inhibition at 10 µM (KB cell) [%] | Inhibition rate (%) of tubulin polymerization (porcine brain tubulin) [%] | also measured
COc1ccc(Sc2ccc(NC(=O)CCc3ccc(C)o3)nc2)cc1 [Compound 83, N-[5-(4-Methoxy-phenylsulfanyl)-pyridin-2-yl]-3-(5-methyl-furan-2-yl)-propionamide] | 91.9 |  | 95.2 | 64.7 | 
Cc1ccc(CCC(=O)Nc2ncc(-c3ccccc3)cn2)o1 [Compound 92, 3-(5-Methyl-furan-2-yl)-N-(5-phenyl-pyrimidin-2-yl)-propionamide] | 94.7 |  | 97.1 | 74.0 | 
Cc1ccc(CCC(=O)Nc2ccc(-c3ccc(F)cc3)cn2)o1 [Compound 112, N-[5-(4-Fluoro-phenyl)-pyridin-2-yl]-3-(5-methyl-furan-2-yl)-propionamide] | 87.8 |  | 96.2 | 76.9 | 
Cc1ccc(CCC(=O)Nc2ncc(Br)cc2C)o1 [Compound 124, N-(5-Bromo-3-methyl-pyridin-2-yl)-3-(5-methyl-furan-2-yl)-propionamide] | 74.8 |  | 93.3 | 84.9 | 
Cc1ccc(CCC(=O)Nc2ccc(Br)cn2)o1 [Compound 123, N-(5-Bromo-pyridin-2-yl)-3-(5-methyl-furan-2-yl)-propionamide] | 78.4 |  | 95.8 | 85.6 | 
COc1ccc(Sc2ccc(NC(=O)CCc3ccccc3)nc2)cc1 [Compound 84, N-[5-(4-Methoxy-phenylsulfanyl)-pyridin-2-yl]-3-phenyl-propionamide] | 88.0 |  | 94.7 | 50.3 | 
Cc1ccc(CCC(=O)Nc2ccc(-c3ccccc3)cn2)o1 [Compound 111, 3-(5-Methyl-furan-2-yl)-N-(5-phenyl-pyridin-2-yl)-propionamide] | 96.4 |  | 65.1 | 72.7 | 
Cc1ccc(CCC(=O)Nc2ncc(-c3ccccc3)cc2C)o1 [Compound 118, 3-(5-Methyl-furan-2-yl)-N-(3-methyl-5-phenyl-pyridin-2-yl)-propionamide] | 99.7 |  | 93 | 81.4 | 
O=C(CCc1ccccc1)Nc1ncc(-c2ccc(F)cc2)cn1 [Compound 99, N-[5-(4-Fluoro-phenyl)-pyrimidin-2-yl]-3-phenyl-propionamide] | 78.3 |  | 95.8 | 55.8 | 
